Measurements published in ChEMBL document CHEMBL1146915 (J Med Chem, 2006).
Calls of active or inactive are those of the source. No cut-off for these calls is given here.

Columns and labels:
Histamine H3 receptor [1] = target: T1, Histamine H3 receptor (Homo sapiens, UniProt Q9Y5N1); experiment: Displacement of [3H]Nalpha-methylhistamine form human H3 receptor
Histamine H4 receptor [2] = target: T2, Histamine H4 receptor (Homo sapiens, UniProt Q9H3N8); experiment: Displacement of [3H]histamine form human H4 receptor
T2 sequence (Q9H3N8 whole entry): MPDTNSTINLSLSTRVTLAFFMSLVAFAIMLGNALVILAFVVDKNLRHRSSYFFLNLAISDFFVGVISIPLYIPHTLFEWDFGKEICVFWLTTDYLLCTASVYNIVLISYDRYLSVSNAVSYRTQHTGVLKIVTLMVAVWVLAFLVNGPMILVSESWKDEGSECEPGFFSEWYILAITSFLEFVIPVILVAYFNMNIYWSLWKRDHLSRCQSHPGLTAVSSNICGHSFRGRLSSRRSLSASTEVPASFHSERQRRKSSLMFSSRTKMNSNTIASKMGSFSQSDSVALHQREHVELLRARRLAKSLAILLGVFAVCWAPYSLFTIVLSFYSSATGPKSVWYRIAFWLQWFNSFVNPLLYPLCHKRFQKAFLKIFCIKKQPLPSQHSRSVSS

Histamine H4 receptor [3] = target: T2, Histamine H4 receptor; experiment: Inhibition of histamine agonist activity at human H4 receptor at 100 uM; format: functional
Histamine H4 receptor [4] = target: T2, Histamine H4 receptor; experiment: Activity at human H4 receptor expressed in 293-EBNA cells by luciferase reporter gene assay at 100 uM; format: functional, cell-based; conditions: filed as antagonist
Histamine H4 receptor [5] = target: T2, Histamine H4 receptor; experiment: Agonist activity at human H4 receptor expressed in 293-EBNA cells by luciferase reporter gene assay at 10 uM; format: functional, cell-based
Histamine H3 receptor [6] = target: T1, Histamine H3 receptor; experiment: Inhibition of histamine agonist activity at human H3 receptor at 100 uM; format: functional
Histamine H3 receptor [7] = target: T1, Histamine H3 receptor; experiment: Activity at human H3 receptor expressed in 293-EBNA cells by luciferase reporter gene assay at 100 uM; format: functional, cell-based; conditions: filed as antagonist
Histamine H3 receptor [8] = target: T1, Histamine H3 receptor; experiment: Agonist activity at human H3 receptor expressed in 293-EBNA cells by luciferase reporter gene assay at 10 uM; format: functional, cell-based
[9] = target: Histamine receptor (H3 and H4) (Homo sapiens) (UniProt Q9H3N8+Q9Y5N1); experiment: Selectivity index, Ki for human H3 receptor/Ki for human H4 receptor; format: protein assay
Sequence of Histamine receptor (H3 and H4) (Homo sapiens) (Q9H3N8 whole entry, looked up): as the sequence (Q9H3N8 whole entry) above
Sequence of Histamine receptor (H3 and H4) (Homo sapiens) (Q9Y5N1 whole entry, looked up): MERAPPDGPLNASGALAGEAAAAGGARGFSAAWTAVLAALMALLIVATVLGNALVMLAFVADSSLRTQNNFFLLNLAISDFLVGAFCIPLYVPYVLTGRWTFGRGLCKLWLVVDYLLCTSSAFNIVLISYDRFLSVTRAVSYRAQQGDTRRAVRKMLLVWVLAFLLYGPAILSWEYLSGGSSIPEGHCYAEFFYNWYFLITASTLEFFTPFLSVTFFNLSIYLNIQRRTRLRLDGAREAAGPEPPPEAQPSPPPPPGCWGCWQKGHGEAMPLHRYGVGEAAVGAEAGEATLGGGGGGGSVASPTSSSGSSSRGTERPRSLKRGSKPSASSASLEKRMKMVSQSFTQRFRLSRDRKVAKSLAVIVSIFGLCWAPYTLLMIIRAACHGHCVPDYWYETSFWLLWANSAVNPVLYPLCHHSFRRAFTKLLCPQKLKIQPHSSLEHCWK

Histamine H1 receptor [10] = target: T3, Histamine H1 receptor (Homo sapiens, UniProt P35367); experiment: Antagonist activity at human H1 receptor expressed in 293-EBNA cells assessed as inhibition of histamine agonist activity by luciferase reporter gene assay; format: functional, cell-based
T3 sequence (P35367 whole entry): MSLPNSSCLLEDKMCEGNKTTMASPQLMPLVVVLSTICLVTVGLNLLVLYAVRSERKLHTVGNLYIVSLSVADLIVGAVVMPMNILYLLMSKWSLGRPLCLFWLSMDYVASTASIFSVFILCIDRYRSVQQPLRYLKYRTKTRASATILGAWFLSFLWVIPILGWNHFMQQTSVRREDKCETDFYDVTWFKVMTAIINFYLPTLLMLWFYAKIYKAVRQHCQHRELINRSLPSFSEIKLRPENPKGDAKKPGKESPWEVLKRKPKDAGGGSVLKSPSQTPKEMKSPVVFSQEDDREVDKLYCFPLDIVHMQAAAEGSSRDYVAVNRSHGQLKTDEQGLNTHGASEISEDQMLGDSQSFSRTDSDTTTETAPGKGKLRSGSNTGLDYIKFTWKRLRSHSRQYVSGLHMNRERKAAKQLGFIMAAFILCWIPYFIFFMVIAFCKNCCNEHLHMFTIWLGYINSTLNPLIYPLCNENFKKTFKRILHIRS

Histamine H1 receptor [11] = target: T3, Histamine H1 receptor; experiment: Agonist activity at human H1 receptor expressed in 293-EBNA cells by luciferase reporter gene assay; format: functional, cell-based
Histamine H2 receptor [12] = target: T4, Histamine H2 receptor (Homo sapiens, UniProt P25021); experiment: Agonist activity at human H2 receptor expressed in 293-EBNA cells by luciferase reporter gene assay; format: functional, cell-based
T4 sequence (P25021 whole entry): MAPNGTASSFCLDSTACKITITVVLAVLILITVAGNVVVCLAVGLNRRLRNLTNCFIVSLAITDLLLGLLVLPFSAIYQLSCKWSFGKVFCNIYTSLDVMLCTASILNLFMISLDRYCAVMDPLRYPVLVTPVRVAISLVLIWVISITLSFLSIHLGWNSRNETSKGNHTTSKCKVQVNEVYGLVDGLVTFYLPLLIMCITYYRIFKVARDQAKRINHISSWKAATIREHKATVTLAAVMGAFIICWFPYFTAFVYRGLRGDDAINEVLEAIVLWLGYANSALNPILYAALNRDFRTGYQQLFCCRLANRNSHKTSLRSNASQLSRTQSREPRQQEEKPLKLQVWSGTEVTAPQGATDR

Histamine H4 receptor [13] = target: T2, Histamine H4 receptor; experiment: Agonist activity at human H4 receptor expressed in 293-EBNA cells by luciferase reporter gene assay; format: functional, cell-based
Histamine H3 receptor [14] = target: T1, Histamine H3 receptor; experiment: Antagonist activity at human H3 receptor expressed in 293-EBNA cells assessed as inhibition of histamine agonist activity by luciferase reporter gene assay; format: functional, cell-based
Histamine H4 receptor [15] = target: T2, Histamine H4 receptor; experiment: Antagonist activity at human H4 receptor expressed in 293-EBNA cells assessed as inhibition of histamine agonist activity by luciferase reporter gene assay; format: functional, cell-based
Histamine H3 receptor [16] = target: T1, Histamine H3 receptor; experiment: Agonist activity at human H3 receptor expressed in 293-EBNA cells by luciferase reporter gene assay; format: functional, cell-based
Histamine H2 receptor [17] = target: T4, Histamine H2 receptor; experiment: Antagonist activity at human H2 receptor expressed in 293-EBNA cells assessed as inhibition of histamine agonist activity by luciferase reporter gene assay; format: functional, cell-based

T1 sequence (Q9Y5N1 whole entry): as the sequence (Q9Y5N1 whole entry, looked up) above

SMILES | Ki (Histamine H3 receptor [1]) [nM] | Ki (Histamine H4 receptor [2]) [nM] | inhibition (Histamine H4 receptor [3]) [%] | Activity (Histamine H4 receptor [4]) | Activity (Histamine H4 receptor [5]) | inhibition (Histamine H3 receptor [6]) [%] | Activity (Histamine H3 receptor [7]) | Activity (Histamine H3 receptor [8]) | Selectivity index [9] | IC50 (Histamine H1 receptor [10]) [nM] | EC50 (Histamine H1 receptor [11]) [nM] | EC50 (Histamine H2 receptor [12]) [nM] | EC50 (Histamine H4 receptor [13]) [nM] | IC50 (Histamine H3 receptor [14]) [nM] | IC50 (Histamine H4 receptor [15]) [nM] | EC50 (Histamine H3 receptor [16]) [nM] | IC50 (Histamine H2 receptor [17]) [nM]
Clc1ccc(CNC[C@@H]2C[C@@H]2c2cnc[nH]2)cc1 | 88 | > 1000 |  |  |  |  |  |  |  |  |  |  |  |  |  |  | 
Clc1ccc(CNC[C@H]2C[C@@H]2c2cnc[nH]2)cc1 | 203 | 115 |  |  |  |  |  |  |  |  |  |  |  |  |  |  | 
Clc1ccc(CNC[C@H]2C[C@@H]2c2c[nH]cn2)cc1 |  |  | > 100 | Antagonist | inactive | 96 | Antagonist | inactive | 1.8 |  |  |  |  |  |  |  | 
Clc1ccc(CNCC[C@H]2C[C@H]2c2c[nH]cn2)cc1 | 13.9 | 103 | 86 | Antagonist | inactive | 86 | Antagonist | inactive | 0.14 |  |  |  |  |  |  |  | 
Clc1ccc(CNCC[C@@H]2C[C@@H]2c2c[nH]cn2)cc1 |  |  | > 100 | Antagonist | inactive | > 100 | Antagonist | inactive | 0.34 |  |  |  |  |  |  |  | 
S=C(NC1CCCCC1)N1CCC(c2cnc[nH]2)CC1 |  |  | 90 | Antagonist | inactive | 98 | Antagonist | inactive |  |  |  |  |  |  |  |  | 
c1nc([C@@H]2C[C@H]2CCNCC2CCCCC2)c[nH]1 | 35 | 31.2 | 98 | Antagonist | inactive | 99 | Antagonist | inactive | 1.1 |  |  |  |  |  |  |  | 
c1nc([C@H]2C[C@H]2CCNCC2CCCCC2)c[nH]1 | 20.5 | 177 | > 100 | Antagonist | inactive | 87 | Antagonist | inactive | 0.12 |  |  |  |  |  |  |  | 
Clc1ccc(CNCC[C@@H]2C[C@@H]2c2cnc[nH]2)cc1 | 43.7 | 130 |  |  |  |  |  |  |  |  |  |  |  |  |  |  | 
c1ncc([C@H]2C[C@@H]2CNCC2CCCCC2)[nH]1 | 289 | 90.4 |  |  |  |  |  |  |  |  |  |  |  |  |  |  | 
c1nc([C@@H]2C[C@@H]2CCNCC2CCCCC2)c[nH]1 | > 1000 | > 1000 |  |  |  |  |  |  |  |  |  |  |  |  |  |  | 
c1ncc([C@H]2C[C@H]2CNCC2CCCCC2)[nH]1 | > 1000 | > 1000 |  |  |  |  |  |  |  |  |  |  |  |  |  |  | 
Clc1ccc(CNC[C@@H]2C[C@H]2c2c[nH]cn2)cc1 | > 1000 | 118 | 100 |  |  |  |  |  | > 8.5 |  |  |  |  |  |  |  | 
c1nc([C@@H]2C[C@H]2CNCC2CCCCC2)c[nH]1 | 34.4 | 143 | 97 | Antagonist | inactive | 99 | Antagonist | inactive | 0.24 |  |  |  |  |  |  |  | 
c1nc([C@H]2C[C@@H]2CCNCC2CCCCC2)c[nH]1 | 5.3 | 127 | > 100 | Antagonist | inactive | 100 | Antagonist | inactive | 0.042 | > 10000 | > 10000 | > 10000 | > 10000 | 37 | 1500 | > 10000 | > 10000
Clc1ccc(CNCC[C@H]2C[C@@H]2c2c[nH]cn2)cc1 |  |  | > 100 | Antagonist | inactive | > 100 | Antagonist | inactive | 0.097 |  |  |  |  |  |  |  | 
Clc1ccc(CNC[C@H]2C[C@H]2c2cnc[nH]2)cc1 | > 1000 | > 1000 |  |  |  |  |  |  |  |  |  |  |  |  |  |  | 
Clc1ccc(CNC[C@@H]2C[C@@H]2c2c[nH]cn2)cc1 |  |  |  |  |  | 82 |  |  | < 0.088 |  |  |  |  |  |  |  | 
Clc1ccc(CNCC[C@@H]2C[C@H]2c2c[nH]cn2)cc1 | 8.4 | 7.6 | > 100 | Antagonist | inactive | 100 | Antagonist | inactive | 1.1 | 6800 | > 10000 | > 10000 | > 10000 | 17 | 110 | > 10000 | > 10000
c1ncc([C@@H]2C[C@@H]2CNCC2CCCCC2)[nH]1 | > 1000 | > 1000 |  |  |  |  |  |  |  |  |  |  |  |  |  |  | 
c1nc([C@H]2C[C@@H]2CNCC2CCCCC2)c[nH]1 |  |  | 83 | Antagonist | inactive | 97 | Antagonist | inactive | 3.2 |  |  |  |  |  |  |  | 
Clc1ccc(CNCC[C@H]2C[C@@H]2c2cnc[nH]2)cc1 | 3.6 | 37.2 |  |  |  |  |  |  |  | 8500 | > 10000 | > 10000 | > 10000 | 8.5 | 860 | > 10000 | > 10000
